Positions of bridges follow the written chain, without caps; N, C: chain ends. Non-standard residues stand in square brackets, D forms with d. Residues, ends and D or L forms follow the SMILES beside them. Pra = C#CC[C@H](N)C(=O)O; Nva = CCC[C@H](N)C(=O)O; Abu = CC[C@H](N)C(=O)O

We go through seven molecules from patent US9340590B2 (priority 2011, dated 2016).

Experiment in all cases: cell-based
For one test, the target named is hNav1.4 (Homo sapiens, UniProt P35499). The following applies: IonWorks Quattro, use-dependent block, hNav1.4; read-out: IWQ Use Nav1.4.
Sequence of hNav1.4 (P35499 whole entry, looked up): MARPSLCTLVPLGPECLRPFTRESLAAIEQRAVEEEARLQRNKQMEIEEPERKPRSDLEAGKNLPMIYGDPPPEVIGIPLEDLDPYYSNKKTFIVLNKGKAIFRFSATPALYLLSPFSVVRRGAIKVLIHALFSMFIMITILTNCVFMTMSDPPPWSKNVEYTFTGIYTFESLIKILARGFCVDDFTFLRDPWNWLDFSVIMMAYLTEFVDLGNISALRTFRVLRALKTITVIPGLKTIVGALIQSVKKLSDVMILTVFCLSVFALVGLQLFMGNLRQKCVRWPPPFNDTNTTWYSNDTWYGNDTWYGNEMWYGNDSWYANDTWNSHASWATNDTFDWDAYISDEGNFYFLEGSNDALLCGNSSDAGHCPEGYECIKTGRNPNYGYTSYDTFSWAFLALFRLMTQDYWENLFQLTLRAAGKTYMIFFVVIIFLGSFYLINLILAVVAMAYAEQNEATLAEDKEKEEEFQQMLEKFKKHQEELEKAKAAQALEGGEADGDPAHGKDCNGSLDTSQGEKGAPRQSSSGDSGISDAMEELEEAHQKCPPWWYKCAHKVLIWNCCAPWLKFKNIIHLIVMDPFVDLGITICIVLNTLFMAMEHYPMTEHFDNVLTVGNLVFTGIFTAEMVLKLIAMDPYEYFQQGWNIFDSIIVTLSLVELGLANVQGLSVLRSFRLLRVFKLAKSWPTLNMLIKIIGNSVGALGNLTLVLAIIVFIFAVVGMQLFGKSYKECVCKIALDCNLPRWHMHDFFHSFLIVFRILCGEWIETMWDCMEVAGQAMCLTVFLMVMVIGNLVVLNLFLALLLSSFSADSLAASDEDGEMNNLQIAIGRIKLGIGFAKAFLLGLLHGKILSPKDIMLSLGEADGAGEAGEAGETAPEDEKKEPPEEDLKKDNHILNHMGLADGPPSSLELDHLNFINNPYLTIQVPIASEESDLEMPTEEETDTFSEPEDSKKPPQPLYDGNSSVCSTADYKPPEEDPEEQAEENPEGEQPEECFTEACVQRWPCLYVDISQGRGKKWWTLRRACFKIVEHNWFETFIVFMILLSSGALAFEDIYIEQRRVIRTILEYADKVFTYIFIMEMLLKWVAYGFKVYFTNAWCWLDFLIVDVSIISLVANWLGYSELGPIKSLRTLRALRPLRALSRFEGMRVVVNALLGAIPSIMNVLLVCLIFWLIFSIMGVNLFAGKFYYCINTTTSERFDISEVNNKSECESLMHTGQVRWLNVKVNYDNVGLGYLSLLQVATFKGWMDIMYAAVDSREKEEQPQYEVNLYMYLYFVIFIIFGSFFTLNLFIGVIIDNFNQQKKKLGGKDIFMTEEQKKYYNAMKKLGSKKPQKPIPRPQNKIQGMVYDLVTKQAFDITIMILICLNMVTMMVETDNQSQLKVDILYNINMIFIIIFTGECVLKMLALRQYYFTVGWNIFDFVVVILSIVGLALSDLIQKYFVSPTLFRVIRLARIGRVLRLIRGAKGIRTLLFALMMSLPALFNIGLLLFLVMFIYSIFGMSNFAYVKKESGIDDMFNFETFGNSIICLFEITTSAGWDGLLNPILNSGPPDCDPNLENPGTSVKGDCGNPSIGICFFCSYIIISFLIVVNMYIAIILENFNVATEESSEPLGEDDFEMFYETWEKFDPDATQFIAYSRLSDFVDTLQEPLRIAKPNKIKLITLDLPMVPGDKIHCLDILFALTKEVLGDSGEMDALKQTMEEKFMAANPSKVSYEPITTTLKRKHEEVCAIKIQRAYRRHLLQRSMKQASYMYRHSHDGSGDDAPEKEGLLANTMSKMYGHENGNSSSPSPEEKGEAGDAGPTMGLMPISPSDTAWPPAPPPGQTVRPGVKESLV
The target in a further test is hNav1.7 (Homo sapiens, UniProt Q15858). Format: cell-based. The following applies: for IC50: IonWorks Quattro, use-dependent block, hNav1.7, read-out: IWQ Use Nav1.7. On the technique in general: In patch-clamp work, channel activity is measured electrically.
Sequence of hNav1.7 (Q15858 whole entry, looked up): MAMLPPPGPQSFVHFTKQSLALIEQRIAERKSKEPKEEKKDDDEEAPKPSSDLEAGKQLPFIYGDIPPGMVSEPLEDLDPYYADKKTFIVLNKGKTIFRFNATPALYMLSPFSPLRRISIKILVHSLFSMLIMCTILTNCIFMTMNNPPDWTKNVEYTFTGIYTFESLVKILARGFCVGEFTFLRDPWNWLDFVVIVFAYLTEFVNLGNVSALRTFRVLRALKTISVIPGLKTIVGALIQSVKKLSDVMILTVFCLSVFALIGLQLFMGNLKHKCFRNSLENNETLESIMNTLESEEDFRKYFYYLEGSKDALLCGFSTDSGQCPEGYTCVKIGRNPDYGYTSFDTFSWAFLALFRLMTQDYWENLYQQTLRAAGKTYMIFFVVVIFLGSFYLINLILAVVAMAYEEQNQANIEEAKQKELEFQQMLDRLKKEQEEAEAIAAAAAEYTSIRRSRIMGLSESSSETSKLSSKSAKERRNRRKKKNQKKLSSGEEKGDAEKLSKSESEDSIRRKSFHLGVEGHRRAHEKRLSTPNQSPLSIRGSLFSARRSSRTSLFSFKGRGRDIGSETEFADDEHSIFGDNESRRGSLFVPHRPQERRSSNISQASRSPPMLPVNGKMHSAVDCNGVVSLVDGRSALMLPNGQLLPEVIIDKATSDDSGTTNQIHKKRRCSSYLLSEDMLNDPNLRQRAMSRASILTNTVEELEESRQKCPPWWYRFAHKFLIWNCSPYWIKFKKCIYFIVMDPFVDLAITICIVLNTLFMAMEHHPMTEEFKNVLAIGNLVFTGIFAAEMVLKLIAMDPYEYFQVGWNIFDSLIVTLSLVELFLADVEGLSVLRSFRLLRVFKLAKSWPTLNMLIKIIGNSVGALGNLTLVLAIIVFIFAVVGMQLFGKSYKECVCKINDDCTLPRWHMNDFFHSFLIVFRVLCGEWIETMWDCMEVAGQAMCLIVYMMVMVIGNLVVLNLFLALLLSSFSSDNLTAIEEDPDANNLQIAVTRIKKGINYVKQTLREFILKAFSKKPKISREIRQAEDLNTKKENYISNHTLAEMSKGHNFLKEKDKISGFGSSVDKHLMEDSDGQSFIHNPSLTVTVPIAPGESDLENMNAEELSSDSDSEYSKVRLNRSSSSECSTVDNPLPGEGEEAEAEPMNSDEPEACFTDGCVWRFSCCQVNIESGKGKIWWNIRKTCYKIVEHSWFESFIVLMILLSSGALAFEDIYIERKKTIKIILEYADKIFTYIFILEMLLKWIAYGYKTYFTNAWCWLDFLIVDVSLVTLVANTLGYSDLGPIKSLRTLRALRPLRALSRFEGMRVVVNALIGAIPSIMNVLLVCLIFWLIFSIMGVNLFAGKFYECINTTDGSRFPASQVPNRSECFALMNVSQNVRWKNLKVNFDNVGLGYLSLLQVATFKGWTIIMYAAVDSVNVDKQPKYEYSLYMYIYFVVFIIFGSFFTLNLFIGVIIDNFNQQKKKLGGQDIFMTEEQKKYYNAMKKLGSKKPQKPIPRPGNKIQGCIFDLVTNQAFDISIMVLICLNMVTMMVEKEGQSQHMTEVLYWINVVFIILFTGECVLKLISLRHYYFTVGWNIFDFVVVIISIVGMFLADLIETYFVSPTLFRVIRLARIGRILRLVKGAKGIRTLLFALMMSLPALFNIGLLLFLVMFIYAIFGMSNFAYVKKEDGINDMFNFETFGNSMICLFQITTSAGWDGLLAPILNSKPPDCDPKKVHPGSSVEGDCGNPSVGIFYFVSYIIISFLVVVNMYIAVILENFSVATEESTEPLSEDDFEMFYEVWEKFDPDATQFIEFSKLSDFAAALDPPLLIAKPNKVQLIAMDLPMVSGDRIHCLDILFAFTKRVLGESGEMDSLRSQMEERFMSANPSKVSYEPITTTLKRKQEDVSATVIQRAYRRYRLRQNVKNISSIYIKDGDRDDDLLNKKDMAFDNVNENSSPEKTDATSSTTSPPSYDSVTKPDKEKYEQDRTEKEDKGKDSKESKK
A further test addresses hNav1.5 (Homo sapiens, UniProt Q14524). The note with it: IonWorks Quattro, use-dependent block, hNav1.5; read-out: IWQ Use Nav1.5.
Another test addresses hNav1.3 (Homo sapiens, UniProt Q9NY46). The note with it: for IC50: IonWorks Quattro, use-dependent block, hNav1.3, read-out: IWQ Use Nav1.3.

In the case of `CC(C)C[C@@H]1NC(=O)[C@@H](NC(=O)[C@@H](N)CC(=O)O)CSSC[C@@H]2NC(=O)[C@@H]3CSSC[C@@H](C(=O)N[C@@H](CCCCN)C(=O)N[C@@H](Cc4ccc(O)cc4)C(=O)N[C@@H](CCCCN)C(=O)N[C@@H](CC(C)C)C(=O)N[C@@H](Cc4c[nH]c5ccccc45)C(=O)N[C@@H](CCCCN)C(=O)O)NC(=O)[C@H](Cc4c[nH]c5ccccc45)NC(=O)[C@H](CCCCN)NC(=O)[C@H](CC(=O)O)NC(=O)[C@H](CCCNC(=N)N)NC(=O)[C@H](CCCNC(=N)N)NC(=O)[C@H](CC(N)=O)NC(=O)[C@H](CSSC[C@H](NC(=O)CNC(=O)[C@H](CCCCN)NC(=O)[C@H](Cc4ccccc4)NC(=O)[C@H](Cc4c[nH]c5ccccc45)NC(=O)CNC1=O)C(=O)N[C@@H](CC(=O)O)C(=O)N1CCC[C@H]1C(=O)N[C@@H](CC(=O)O)C(=O)N[C@@H](CC(N)=O)C(=O)N[C@@H](CC(=O)O)C(=O)N[C@@H](CCCCN)C(=O)N3)NC(=O)[C@H](CCCCN)NC(=O)[C@H](Cc1ccc(O)cc1)NC(=O)CNC(=O)[C@H](CCC(=O)O)NC2=O` [compound 471] (H-DCLGWFKGCDPDNDKCCEGYKCNRRDKWCKYKLWK-OH; disulfide 2-17, 9-22, 16-29), the IC50 at hNav1.4 turned out to be 17.4 µM; on hNav1.7, 9.6 µM; on hNav1.5 it was 14.6 µM; on hNav1.3, 1.7 µM. Further, the Nav1.4/Nav1.7 at hNav1.7 (ratio of IWQ Use values, Nav1.4 over Nav1.7) was 1.8. Besides, on hNav1.3 (ratio of IWQ Use values, Nav1.4 over Nav1.3), the Nav1.4/Nav1.3 amounted to 10.0. The Nav1.7/Nav1.3 on hNav1.3 (ratio of IWQ Use values, Nav1.7 over Nav1.3) is 5.5.

Consider `CC[C@@H]1NC(=O)[C@@H]2CSSC[C@@H](C(=O)N[C@@H](CCCCN)C(=O)N[C@@H](Cc3ccc(O)cc3)C(=O)N[C@H](C(=O)N[C@@H](Cc3ccccc3)C(N)=O)C(C)C)NC(=O)[C@H](Cc3c[nH]c4ccccc34)NC(=O)[C@H](CCCCN)NC(=O)[C@H](Cc3c[nH]cn3)NC(=O)[C@H]([C@@H](C)O)NC(=O)[C@H](CCCNC(=N)N)NC(=O)[C@H](CO)NC(=O)[C@H](CSSC[C@H](NC(=O)[C@H](CCCCN)NC(=O)[C@H](CCCNC(=N)N)NC(=O)[C@H](CCSC)NC(=O)[C@H](C)NC(=O)CNC(=O)[C@H](CC(C)C)NC(=O)[C@H](CC)NC(=O)[C@@H](N)CC(=O)O)C(=O)N[C@@H](CC(=O)O)C(=O)N3CCC[C@H]3C(=O)N[C@@H](CC(=O)O)C(=O)N[C@@H](CC(N)=O)C(=O)N[C@@H](CC(=O)O)C(=O)N[C@@H](CCCCN)C(=O)N2)NC(=O)[C@H](C(C)C)NC(=O)[C@H](CC(C)C)NC(=O)[C@H](CC(N)=O)NC(=O)[C@@H]2CCCN2C(=O)[C@H](CCCNC(=N)N)NC1=O` [compound 716] (H-D[Abu]LGAMRKCDPDNDKC[Abu]RPNLVCSRTHKWCKYVF-NH2; disulfide 9-23, 16-30), for which the IC50 at hNav1.4 is more than 50 µM; at hNav1.7 it was 3.7 µM; on hNav1.5 it was 49 µM; on hNav1.3, more than 5 µM.

`CCC[C@H](NC(=O)CNC(=O)[C@H](CC(C)C)NC(=O)[C@H](CC)NC(=O)[C@@H](N)CC(=O)O)C(=O)N[C@@H](CC(C)C)C(=O)N[C@@H](CCCNC(=N)N)C(=O)N[C@@H](CCCCN)C(=O)N[C@H]1CSSC[C@@H]2NC(=O)[C@H](C(C)C)NC(=O)[C@H](CC(C)C)NC(=O)[C@H](CC(N)=O)NC(=O)[C@@H]3CCCN3C(=O)[C@H](CCCNC(=N)N)NC(=O)[C@H](CC)NC(=O)[C@H](CSSC[C@@H](C(=O)N[C@@H](CCCCN)C(=O)N[C@@H](Cc3ccc(O)cc3)C(=O)N[C@H](C(=O)N[C@@H](Cc3ccccc3)C(N)=O)C(C)C)NC(=O)[C@H](Cc3c[nH]c4ccccc34)NC(=O)[C@H](CCC(=O)O)NC(=O)[C@H](Cc3c[nH]cn3)NC(=O)[C@H]([C@@H](C)O)NC(=O)[C@H](CCCNC(=N)N)NC(=O)[C@H](CO)NC2=O)NC(=O)[C@H](CCCCN)NC(=O)[C@H](CC(=O)O)NC(=O)[C@H](CC(N)=O)NC(=O)[C@H](CC(=O)O)NC(=O)[C@@H]2CCCN2C(=O)[C@H]([C@@H](C)CC)NC1=O` [compound 717] (H-D[Abu]LG[Nva]LRKCIPDNDKC[Abu]RPNLVCSRTHEWCKYVF-NH2; disulfide 9-23, 16-30): the IC50 is more than 50 µM at hNav1.4, more than 5 µM at hNav1.7, more than 50 µM at hNav1.5 and more than 5 µM on hNav1.3.

Turning to `CC[C@H](NC(=O)CNC(=O)[C@H](CC(C)C)NC(=O)[C@H](CC)NC(=O)[C@@H](N)CC(=O)O)C(=O)N[C@@H](CC(C)C)C(=O)N[C@@H](CCCNC(=N)N)C(=O)N[C@@H](CCCCN)C(=O)N[C@H]1CSSC[C@@H]2NC(=O)[C@H](C(C)C)NC(=O)[C@H](CC(C)C)NC(=O)[C@H](CC(N)=O)NC(=O)[C@@H]3CCCN3C(=O)[C@H](CCCNC(=N)N)NC(=O)[C@H](CC)NC(=O)[C@H](CSSC[C@@H](C(=O)N[C@@H](CCCCN)C(=O)N[C@@H](Cc3ccc(O)cc3)C(=O)N[C@H](C(=O)N[C@@H](Cc3ccccc3)C(N)=O)C(C)C)NC(=O)[C@H](Cc3c[nH]c4ccccc34)NC(=O)[C@H](CCC(=O)O)NC(=O)[C@H](Cc3c[nH]cn3)NC(=O)[C@H]([C@@H](C)O)NC(=O)[C@H](CCCNC(=N)N)NC(=O)[C@H](CO)NC2=O)NC(=O)[C@H](CCCCN)NC(=O)[C@H](CC(=O)O)NC(=O)[C@H](CC(N)=O)NC(=O)[C@H](CC(=O)O)NC(=O)[C@@H]2CCCN2C(=O)[C@H]([C@@H](C)CC)NC1=O` [compound 718] (H-D[Abu]LG[Abu]LRKCIPDNDKC[Abu]RPNLVCSRTHEWCKYVF-NH2; disulfide 9-23, 16-30), the IC50 on hNav1.4 was more than 50 µM; at hNav1.7, 4.3 µM; on hNav1.5, more than 50 µM; on hNav1.3, more than 5 µM.

As to `CC[C@@H]1NC(=O)[C@@H]2CSSC[C@@H](C(=O)N[C@@H](CCCCN)C(=O)N[C@@H](Cc3ccc(O)cc3)C(=O)N[C@H](C(=O)N[C@@H](Cc3ccccc3)C(N)=O)C(C)C)NC(=O)[C@H](Cc3c[nH]c4ccccc34)NC(=O)[C@H](CCC(=O)O)NC(=O)[C@H](Cc3c[nH]cn3)NC(=O)[C@H]([C@@H](C)O)NC(=O)[C@H](CCCNC(=N)N)NC(=O)[C@H](CO)NC(=O)[C@H](CSSC[C@H](NC(=O)[C@H](CCCCN)NC(=O)[C@H](CCCNC(=N)N)NC(=O)[C@H](CC(C)C)NC(=O)[C@H](C)NC(=O)CNC(=O)[C@H](CC(C)C)NC(=O)[C@H](CC)NC(=O)[C@@H](N)CC(=O)O)C(=O)N[C@@H]([C@@H](C)CC)C(=O)N3CCC[C@H]3C(=O)N[C@@H](CC(=O)O)C(=O)N[C@@H](CC(N)=O)C(=O)N[C@@H](CC(=O)O)C(=O)N[C@@H](CCCCN)C(=O)N2)NC(=O)[C@H](C(C)C)NC(=O)[C@H](CC(C)C)NC(=O)[C@H](CC(N)=O)NC(=O)[C@@H]2CCCN2C(=O)[C@H](CCCNC(=N)N)NC1=O` [compound 719] (H-D[Abu]LGALRKCIPDNDKC[Abu]RPNLVCSRTHEWCKYVF-NH2; disulfide 9-23, 16-30), the IC50 is more than 50 µM on hNav1.4, 4.3 µM at hNav1.7, more than 50 µM on hNav1.5 and more than 5 µM at hNav1.3.

Turning to `CC[C@@H]1NC(=O)[C@@H]2CSSC[C@@H](C(=O)N[C@@H](CCCCN)C(=O)N[C@@H](Cc3ccc(O)cc3)C(=O)N[C@H](C(=O)N[C@@H](Cc3ccccc3)C(N)=O)C(C)C)NC(=O)[C@H](Cc3c[nH]c4ccccc34)NC(=O)[C@H](CCC(=O)O)NC(=O)[C@H](Cc3c[nH]cn3)NC(=O)[C@H]([C@@H](C)O)NC(=O)[C@H](CCCNC(=N)N)NC(=O)[C@H](CO)NC(=O)[C@H](CSSC[C@H](NC(=O)[C@H](CCCCN)NC(=O)[C@H](CCCNC(=N)N)NC(=O)[C@H](CC(C)C)NC(=O)[C@@H](NC(=O)CNC(=O)[C@H](CC(C)C)NC(=O)[C@H](CC)NC(=O)[C@@H](N)CC(=O)O)C(C)C)C(=O)N[C@@H]([C@@H](C)CC)C(=O)N3CCC[C@H]3C(=O)N[C@@H](CC(=O)O)C(=O)N[C@@H](CC(N)=O)C(=O)N[C@@H](CC(=O)O)C(=O)N[C@@H](CCCCN)C(=O)N2)NC(=O)[C@H](C(C)C)NC(=O)[C@H](CC(C)C)NC(=O)[C@H](CC(N)=O)NC(=O)[C@@H]2CCCN2C(=O)[C@H](CCCNC(=N)N)NC1=O` [compound 720] (H-D[Abu]LGVLRKCIPDNDKC[Abu]RPNLVCSRTHEWCKYVF-NH2; disulfide 9-23, 16-30), the IC50 is more than 50 µM on hNav1.4, more than 5 µM on hNav1.7, 33 µM at hNav1.5 and more than 5 µM at hNav1.3.

For `C#CC[C@@H]1NC(=O)[C@H](CC(=O)O)NC(=O)[C@@H]2CCCN2C(=O)[C@H](CCC(=O)O)NC(=O)[C@@H]2CSSC[C@@H]3NC(=O)[C@H](C(C)C)NC(=O)[C@H](CC(C)C)NC(=O)[C@H](CC(N)=O)NC(=O)[C@@H]4CCCN4C(=O)[C@H](CCCNC(=N)N)NC(=O)[C@H](CSSC[C@H](NC(=O)[C@@H](N)CC(=O)O)C(=O)N[C@@H](CC(C)C)C(=O)NCC(=O)N[C@@H](C)C(=O)N[C@@H](CC(C)C)C(=O)N[C@@H](CCCNC(=N)N)C(=O)N[C@@H](CCCCN)C(=O)N2)NC(=O)[C@H](CSSC[C@@H](C(=O)N[C@@H](CCCCN)C(=O)N[C@@H](Cc2ccc(O)cc2)C(=O)N[C@H](C(=O)N[C@@H](Cc2ccccc2)C(N)=O)C(C)C)NC(=O)[C@H](Cc2c[nH]c4ccccc24)NC(=O)[C@H](CCCNC(=N)N)NC(=O)[C@H](Cc2c[nH]cn2)NC(=O)[C@H](CC(C)C)NC(=O)[C@H](CCCNC(=N)N)NC(=O)[C@H](CO)NC3=O)NC(=O)[C@H](CCCCN)NC(=O)[C@H](CC(=O)O)NC1=O` [compound 800] (H-DCLGALRKCEPD[Pra]DKCCRPNLVCSRLHRWCKYVF-NH2; disulfide 2-17, 9-23, 16-30), the IC50 was more than 50 µM on hNav1.4, 0.7 µM on hNav1.7, more than 50 µM on hNav1.5 and 1.4 µM on hNav1.3. The Nav1.7/Nav1.3 on hNav1.7 (ratio of IWQ Use values Nav1.7 to Nav1.3) was found to be 0.5.
